Reference: ChEMBL document CHEMBL1156046, “Amiodarone and its putative metabolites fail to activate wild type hTAAR1” (Bioorg Med Chem Lett, 2009)
Calls of active or inactive are those of the source. The rule behind the calls is not given here.

Key:
[1] = target: T1, Trace amine-associated receptor 1 (Homo sapiens) (UniProt Q96RJ0); test: Activation of human TAAR1 expressed in CHOK1 cells assessed as cAMP accumulation at 0.1 to 1 uM; format: functional, cell-based; conditions: CHO-K1
T1 sequence (whole entry): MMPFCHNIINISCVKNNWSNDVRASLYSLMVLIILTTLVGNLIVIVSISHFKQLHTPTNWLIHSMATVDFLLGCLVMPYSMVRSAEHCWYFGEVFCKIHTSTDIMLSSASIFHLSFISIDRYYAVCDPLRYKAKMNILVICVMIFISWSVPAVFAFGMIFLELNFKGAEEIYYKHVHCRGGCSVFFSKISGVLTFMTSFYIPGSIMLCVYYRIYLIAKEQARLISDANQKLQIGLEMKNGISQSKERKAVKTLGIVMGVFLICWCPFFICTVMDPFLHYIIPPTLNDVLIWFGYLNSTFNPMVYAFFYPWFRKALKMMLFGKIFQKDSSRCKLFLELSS

CHO [2] = test: Effect on calcium mobilization in CHO cells stably expressing Galpha16; format: functional, cell-based; conditions: Cricetulus griseus
[3] = target: T1, Trace amine-associated receptor 1 (Homo sapiens); test: Activation of human TAAR1 expressed in CHOK1 cells coexpressing Galpha16 assessed as calcium accumulation at 0.1 to 1 uM relative to beta-phenethylamine; format: functional, cell-based; conditions: CHO-K1
[4] = target: T1, Trace amine-associated receptor 1 (Homo sapiens); test: Activation of human TAAR1 expressed in CHOK1 cells assessed as cAMP accumulation at 10 uM relative to beta-phenethylamine; format: functional, cell-based; conditions: CHO-K1
CHO [5] = test: Effect on calcium mobilization in CHO cells stably expressing Galpha16 at 10 uM relative to beta-phenethylamine; format: functional, Cricetulus griseus
[6] = target: T2, Trace amine-associated receptor 1 (Homo sapiens, UniProt Q96RJ0); test: Activation of human TAAR1 expressed in CHOK1 cells coexpressing Galpha16 assessed as calcium accumulation; format: functional, cell-based, CHO-K1
T2 sequence (Q96RJ0 whole entry): T1 sequence (whole entry)

[7] = target: T1, Trace amine-associated receptor 1 (Homo sapiens); test: Activation of human TAAR1 expressed in CHOK1 cells coexpressing Galpha16 assessed as calcium accumulation relative to control; format: functional, cell-based; conditions: CHO-K1

Compound	Activity [1]	Activity [3]	Activity [4] [%]	other results
CCCCc1oc2ccccc2c1C(=O)c1cc(I)c(OCCN(CC)CC)c(I)c1	inactive	–	–	Activity (CHO [2]): inactive
CCCCc1oc2ccccc2c1C(=O)c1cc(I)c(OCCN)c(I)c1	inactive	inactive	< 5	–
CCCCc1oc2ccccc2c1C(=O)c1cc(I)c(OCCNCC)c(I)c1 [DESETHYLAMIODARONE]	inactive	inactive	–	Activity (CHO [5]): 44%
CCCCc1oc2ccccc2c1C(=O)c1ccc(OCCNCC)c(I)c1	inactive	inactive	–	–
CCCCc1oc2ccccc2c1C(=O)c1ccc(OCCN(CC)CC)c(I)c1	inactive	inactive	–	–
CCCCc1oc2ccccc2c1C(=O)c1ccc(OCCN)c(I)c1	inactive	inactive	< 5	–
CCCCc1oc2ccccc2c1C(=O)c1ccc(OCCN(CC)CC)cc1	inactive	inactive	–	–
CCCCc1oc2ccccc2c1C(=O)c1ccc(OCCN)cc1	inactive	inactive	–	–
NCCOc1ccccc1	–	–	–	EC50 [6]: 1790 nM; Emax [7]: 41%
CCCCc1oc2ccccc2c1C(=O)c1ccc(OCCNCC)cc1	inactive	inactive	< 5	–
